Laboratory results published in ChEMBL document CHEMBL1649244, “Horizontal transfer of tetracycline resistance among Chlamydia spp. in vitro” (2009).
Converted amounts (≈) assume the structure as drawn.

How the values were obtained:
Type in all cases: functional
[1] = tested on: Chlamydia trachomatis; assay: Antimicrobial activity against Chlamydia trachomatis F/70/rifR-tetR harboring rpoB gene and tet(C) allele
[2] = tested on: Chlamydia trachomatis; assay: Antimicrobial activity against Chlamydia trachomatis L2/tetR1 harboring tet(C) allele
[3] = tested on: Chlamydia suis; assay: Antimicrobial activity against Chlamydia suis R19/tetR harboring tet(C) allele
[4] = tested on: Chlamydia trachomatis; assay: Antimicrobial activity against Chlamydia trachomatis J/6276/rifR harboring ompA and rpoB genes
[5] = tested on: Chlamydia muridarum; assay: Antimicrobial activity against Chlamydia muridarum MoPn/tetR1 harboring tet(C) allele
[6] = tested on: Chlamydia trachomatis; assay: Antimicrobial activity against Chlamydia trachomatis J/6276/tetR harboring tet(C) allele
[7] = tested on: Chlamydia muridarum; assay: Antimicrobial activity against Chlamydia muridarum MoPn/rifRoflR harboring ompA and rpoB genes
[8] = tested on: Chlamydia trachomatis; assay: Antimicrobial activity against Chlamydia trachomatis L2/tetR13 harboring tet(C) allele
[9] = tested on: Chlamydia trachomatis; assay: Antimicrobial activity against Chlamydia trachomatis J/6276/oflR-rifR2 harboring ompA and rpoB genes
[10] = tested on: Chlamydia suis; assay: Antimicrobial activity against Chlamydia suis S45/rifR harboring rpoB gene
[11] = tested on: Chlamydophila caviae; assay: Antimicrobial activity against Chlamydophila caviae GPIC/rifR harboring rpoB gene; details: Chlamydia caviae
[12] = tested on: Chlamydia muridarum; assay: Antimicrobial activity against Chlamydia muridarum MoPn/oflR-rifR harboring ompA and rpoB genes
[13] = tested on: Chlamydia muridarum; assay: Antimicrobial activity against Chlamydia muridarum MoPn/oflR harboring ompA gene
[14] = tested on: Chlamydia muridarum; assay: Antimicrobial activity against Chlamydia muridarum MoPn/tetR14 harboring tet(C) allele
[15] = tested on: Chlamydia trachomatis; assay: Antimicrobial activity against Chlamydia trachomatis F/70/rifR harboring rpoB gene
[16] = tested on: Chlamydia trachomatis; assay: Antimicrobial activity against Chlamydia trachomatis L2/oflR-rifR2 harboring […] and rpoB genes
[17] = tested on: Chlamydia trachomatis; assay: Antimicrobial activity against Chlamydia trachomatis L2/oflR harboring ompA gene
[18] = tested on: Chlamydia trachomatis; assay: Antimicrobial activity against Chlamydia trachomatis J/6276/oflR-rifR1 harboring ompA and rpoB genes
[19] = tested on: Chlamydia trachomatis; assay: Antimicrobial activity against Chlamydia trachomatis L2/oflR-rifR1 harboring ompA and rpoB genes

SMILES | MIC [1] | MIC [2] | MIC [3] | MIC [4] | MIC [5] | MIC [6] | MIC [7] | MIC [8] | MIC [9] | MIC [10] | MIC [11] | MIC [12] | MIC [13] | MIC [14] | MIC [15] | MIC [16] | MIC [17] | MIC [18] | MIC [19]
CC1COc2c(N3CCN(C)CC3)c(F)cc3c(=O)c(C(=O)O)cn1c23 (configuration not stated) [OFLOXACIN] | 0.5 mg/L (≈ 1.38 µM) | 16 mg/L (≈ 44.3 µM) | 0.5 mg/L (≈ 1.38 µM) | 0.5 mg/L (≈ 1.38 µM) | 32 mg/L (≈ 88.6 µM) | 0.5 mg/L (≈ 1.38 µM) | 32 mg/L (≈ 88.6 µM) | 16 mg/L (≈ 44.3 µM) | 32 mg/L (≈ 88.6 µM) | 0.5 mg/L (≈ 1.38 µM) | 0.5 mg/L (≈ 1.38 µM) | 32 mg/L (≈ 88.6 µM) | 32 mg/L (≈ 88.6 µM) | 32 mg/L (≈ 88.6 µM) | 0.5 mg/L (≈ 1.38 µM) | 16 mg/L (≈ 44.3 µM) | 16 mg/L (≈ 44.3 µM) | 16 mg/L (≈ 44.3 µM) | 16 mg/L (≈ 44.3 µM)
CO[C@H]1/C=C/O[C@@]2(C)Oc3c(C)c(O)c4c(O)c(c(/C=N/N5CCN(C)CC5)c(O)c4c3C2=O)NC(=O)/C(C)=C\C=C\[C@H](C)[C@H](O)[C@@H](C)[C@@H](O)[C@@H](C)[C@H](OC(C)=O)[C@@H]1C [RIFAMPIN] | 32 mg/L (≈ 38.9 µM) | 128 mg/L (≈ 156 µM) | 0.004 mg/L (≈ 0.00486 µM) | 0.004 mg/L (≈ 0.00486 µM) | 0.008 mg/L (≈ 0.00972 µM) | 8 mg/L (≈ 9.72 µM) | 128 mg/L (≈ 156 µM) | 0.004 mg/L (≈ 0.00486 µM) | 8 mg/L (≈ 9.72 µM) | 0.25 mg/L (≈ 0.304 µM) | 16 mg/L (≈ 19.4 µM) | 0.25 mg/L (≈ 0.304 µM) | 0.008 mg/L (≈ 0.00972 µM) | 128 mg/L (≈ 156 µM) | 32 mg/L (≈ 38.9 µM) | 0.25 mg/L (≈ 0.304 µM) | 0.004 mg/L (≈ 0.00486 µM) | 8 mg/L (≈ 9.72 µM) | 128 mg/L (≈ 156 µM)
CN(C)[C@@H]1C(O)=C(C(N)=O)C(=O)[C@@]2(O)C(O)=C3C(=O)c4c(O)cccc4[C@@](C)(O)[C@H]3C[C@@H]12 [TETRACYCLINE] | 8 mg/L (≈ 18 µM) | 8 mg/L (≈ 18 µM) | 8 mg/L (≈ 18 µM) | 0.032 mg/L (≈ 0.072 µM) | 8 mg/L (≈ 18 µM) | 8 mg/L (≈ 18 µM) | 0.008 mg/L (≈ 0.018 µM) | 8 mg/L (≈ 18 µM) | 0.032 mg/L (≈ 0.072 µM) | 0.032 mg/L (≈ 0.072 µM) | 0.032 mg/L (≈ 0.072 µM) | 0.032 mg/L (≈ 0.072 µM) | 0.032 mg/L (≈ 0.072 µM) | 8 mg/L (≈ 18 µM) | 0.032 mg/L (≈ 0.072 µM) | 0.032 mg/L (≈ 0.072 µM) | 0.032 mg/L (≈ 0.072 µM) | 0.032 mg/L (≈ 0.072 µM) | 0.008 mg/L (≈ 0.018 µM)
